Results taken from patent US7041837B2, “Heterocyclic compounds having hypolipidemic, hypocholesteremic activities process for their preparation and pharmaceutical compositions containing them and their use in medicine” (Cadilla Healthcare Limited, priority 2001, dated 2006).

System: Swiss albino mice
Assay: Serum triglyceride and total cholesterol lowering activity in Swiss albino mice
Format: in vivo
Details: male Swiss albino mice, 3 mg/kg/day orally for 6 days, 1 hour after dosing on 6th day
Procedure: i) Serum Triglyceride and Total Cholesterol Lowering Activity in Swiss Albino Mice:
Male Swiss albino mice (SAM) were bred in Zydus animal house. All these animals were maintained under 12 hour light and dark cycle at 25±1° C. Animals were given standard laboratory chow (NIN, Hyderabad, India) and water ad libitum. SAM of 20–30 g body weight range were used.
The test compounds were administered orally to Swiss albino mice at 0.001 to 50 mg/kg/day dose for 6 days. The compound was administered after suspending it in 0.25% CMC or dissolving it in water, when compound is water-soluble. Control mice were treated with vehicle (0.25% of Carboxymethylcellulose; dose 10 ml/kg).
The blood samples were collected on 0th day and in fed state 1 hour after drug administration on 6th day of the treatment. The blood was collected in non heparinised capillary and the serum was analyzed for triglyceride and total cholesterol (Wieland, O. Methods of Enzymatic analysis. Bergermeyer, H., O., Ed., 1963. 211–214; Trinder, P. Ann. Clin. Biochem. 1969. 6:24–27). Measurement of serum triglyceride and total cholesterol was done using commercial kits (Zydus-Cadila, Pathline, Ahmedabad, India).
Percentage reduction in triglycerides/total cholesterol were calculated according to the formula:
[formula] • OC=Zero day control group value OT=Zero day treated group value • TC=Test day control group TT=Test day treated group

With `CCOC(Cc1ccc2cc(OCCn3c(C)ccc3-c3ccc(OC)cc3)ccc2c1)C(=O)OC` (racemic) [Example 76, (R/S) Methyl-2-ethoxy-3[6-[2-[2-(4-methoxyphenyl)-5-methyl-pyrrol-1-yl]ethoxy]napthalen-2yl]propanoate] the “% Triglyceride lowering” value was 26%.
